# Measurements as given in patent US20250263370A1 (Tay Therapeutics Limited, priority 2022, published 2025).
# Where “and” joins values, the source holds several entries; their conditions need not be identical. Equal entries are not always repeated. Entries after “also recorded” stand apart in the source; their conditions may differ.
# System: collagen-induced arthritis
# Test: Collagen-induced arthritis (CIA) model in rats: body weight, paw volume, clinical scores, clinical observations; as to Average detailed clinical score, left hind limb: key of the grades not given here; as to Average detailed clinical score, right hind limb: key of the grades not given here; as to Detailed Clinical Scores, left forelimb: key of the grades not given here; as to Detailed Clinical Scores, left hind limb: key of the grades not given here; as to Detailed Clinical Scores, right forelimb: key of the grades not given here; as to Detailed Clinical Scores, right hind limb: key of the grades not given here; as to Detailed Clinical Scores, score: key of the grades not given here; as to Mean overall clinical score ± SD: key of the grades not given here; as to Overall clinical score: key of the grades not given here
# Details: for Mean animal paw volume ± SD: group mean; for Detailed Clinical Scores, left forelimb / Detailed Clinical Scores, left hind limb / Detailed Clinical Scores, right forelimb / Detailed Clinical Scores, right hind limb / Detailed Clinical Scores, score: individual animals ID 1-8; for Overall clinical score: individual animals #1-8
structure (smiles),measurement,setting,value
C[C@@H]1C[C@H]2[C@@H]3CCC4=CC(=O)C=C[C@]4(C)[C@@]3(F)[C@@H](O)C[C@]2(C)[C@@]1(O)C(=O)CO [dexamethasone],Average animal paw volume percent change,"CIA rats, Day 0, left hind paw (L)",0.00%
same,Animal paw volume Day 0 L,"CIA rats, Day 0, left paw, individual animals",1.35 mL and 1.31 mL and 1.39 mL and 1.33 mL and 1.30 mL (2×) and 1.34 mL and 1.36 mL
same,Average animal paw volume percent change,"CIA rats, Day 0, right hind paw (R)",0.00%
same,Animal paw volume Day 0 R,"CIA rats, Day 0, right paw, individual animals",1.34 mL and 1.30 mL (2×) and 1.38 mL and 1.35 mL and 1.29 mL and 1.36 mL and 1.37 mL
same,Average animal paw volume percent change,"CIA rats, Day 6, left hind paw (L)",−3.37%
same,Animal paw volume Day 6 L,"CIA rats, Day 6, left paw, individual animals",1.31 mL and 1.29 mL (3×) and 1.34 mL and 1.26 mL (2×) and 1.28 mL
same,Average animal paw volume percent change,"CIA rats, Day 6, right hind paw (R)",−3.26%
same,Animal paw volume Day 6 R,"CIA rats, Day 6, right paw, individual animals",1.30 mL (3×) and 1.28 mL (2×) and 1.34 mL and 1.27 mL and 1.26 mL
same,Average animal paw volume percent change,"CIA rats, Day 12, left hind paw (L)",−4.94%
same,Animal paw volume Day 12 L,"CIA rats, Day 12, left paw, individual animals",1.21 mL (2×) and 1.37 mL and 1.28 mL (2×) and 1.22 mL and 1.30 mL and 1.29 mL
same,Average animal paw volume percent change,"CIA rats, Day 12, right hind paw (R)",−5.21%
same,Animal paw volume Day 12 R,"CIA rats, Day 12, right paw, individual animals",1.25 mL (2×) and 1.26 mL (2×) and 1.37 mL and 1.27 mL and 1.18 mL and 1.29 mL
same,Average animal paw volume percent change,"CIA rats, Day 13, left hind paw (L)",−3.57%
same,Animal paw volume Day 13 L,"CIA rats, Day 13, left paw, individual animals",1.23 mL and 1.24 mL and 1.40 mL and 1.29 mL (2×) and 1.30 mL and 1.25 mL and 1.31 mL
same,Average animal paw volume percent change,"CIA rats, Day 13, right hind paw (R)",−4.08%
same,Animal paw volume Day 13 R,"CIA rats, Day 13, right paw, individual animals",1.26 mL and 1.27 mL and 1.38 mL and 1.25 mL and 1.28 mL and 1.21 mL and 1.31 mL and 1.29 mL
same,Average animal paw volume percent change,"CIA rats, Day 14, left hind paw (L)",−4.60%
same,Animal paw volume Day 14 L,"CIA rats, Day 14, left paw, individual animals",1.24 mL (3×) and 1.39 mL and 1.27 mL and 1.28 mL and 1.29 mL and 1.25 mL
same,Average animal paw volume percent change,"CIA rats, Day 14, right hind paw (R)",−5.07%
same,Animal paw volume Day 14 R,"CIA rats, Day 14, right paw, individual animals",1.26 mL (4×) and 1.38 mL and 1.23 mL and 1.20 mL and 1.29 mL
same,Average animal paw volume percent change,"CIA rats, Day 15, left hind paw (L)",−5.47%
same,Animal paw volume Day 15 L,"CIA rats, Day 15, left paw, individual animals",1.23 mL and 1.21 mL and 1.36 mL and 1.28 mL and 1.26 mL and 1.16 mL and 1.33 mL and 1.27 mL
same,Average animal paw volume percent change,"CIA rats, Day 15, right hind paw (R)",−5.41%
same,Animal paw volume Day 15 R,"CIA rats, Day 15, right paw, individual animals",1.25 mL and 1.24 mL and 1.36 mL and 1.27 mL (2×) and 1.14 mL and 1.32 mL and 1.26 mL
same,Average animal paw volume percent change,"CIA rats, Day 18, left hind paw (L)",−3.01%
same,Animal paw volume Day 18 L,"CIA rats, Day 18, left paw, individual animals",1.28 mL and 1.22 mL and 1.45 mL and 1.31 mL and 1.29 mL and 1.18 mL and 1.34 mL and 1.30 mL
same,Average animal paw volume percent change,"CIA rats, Day 18, right hind paw (R)",−3.14%
same,Animal paw volume Day 18 R,"CIA rats, Day 18, right paw, individual animals",1.28 mL and 1.44 mL and 1.31 mL and 1.29 mL (2×) and 1.34 mL
same,Average animal paw volume percent change,"CIA rats, Day 19, left hind paw (L)",−3.33%
same,Animal paw volume Day 19 L,"CIA rats, Day 19, left paw, individual animals",1.28 mL (2×) and 1.22 mL and 1.44 mL and 1.30 mL (2×) and 1.19 mL and 1.33 mL
same,Average animal paw volume percent change,"CIA rats, Day 19, right hind paw (R)",−3.57%
same,Animal paw volume Day 19 R,"CIA rats, Day 19, right paw, individual animals",1.27 mL (2×) and 1.22 mL and 1.44 mL and 1.31 mL and 1.18 mL and 1.32 mL and 1.30 mL
same,Average animal paw volume percent change,"CIA rats, Day 21, left hind paw (L)",−3.56%
same,Animal paw volume Day 21 L,"CIA rats, Day 21, left paw, individual animals",1.26 mL and 1.22 mL and 1.43 mL and 1.31 mL (2×) and 1.30 mL (2×) and 1.18 mL
same,Average animal paw volume percent change,"CIA rats, Day 21, right hind paw (R)",−3.51%
same,Animal paw volume Day 21 R,"CIA rats, Day 21, right paw, individual animals",1.26 mL and 1.22 mL and 1.43 mL and 1.31 mL and 1.30 mL (2×) and 1.18 mL and 1.32 mL
same,signs of disease over the 21-day period,"CIA rats, daily P.O. for 21 days",No animals in group 3 (dexamethasone) ever received a score indicating that they exhibited symptoms of disease; also recorded: never exhibited any signs of disease
same,effect on hind paw volume,"CIA rats, daily P.O. for 21 days, listed as Dexamethasone",effective at controlling paw volume; also recorded: effective at preventing any change in paw volume throughout the entire 21-day period
same,animals showing signs of disease,"CIA rats, daily P.O., day 12",No animals
same,Mean animal paw volume ± SD,"Day 0, L paw",1.33 mL
same,Animal paw volume percent change,"Day 0, L paw, individual animals",0.00%
same,Mean animal paw volume ± SD,"Day 0, R paw",1.33 mL
same,Animal paw volume percent change,"Day 0, R paw, individual animals",0.00%
same,"Average detailed clinical score, left forelimb","Day 0, CIA rats",0.00
same,"Average detailed clinical score, left hind limb","Day 0, CIA rats",0.00
same,"Average detailed clinical score, right forelimb","Day 0, CIA rats",0.00
same,"Average detailed clinical score, right hind limb","Day 0, CIA rats",0.00
same,"Average detailed clinical score, score","Day 0, CIA rats",0.00
same,Mean overall clinical score ± SD,"Day 0, CIA rats",0 ± 0
same,"Detailed Clinical Scores, left forelimb","Day 0, CIA rats",0
same,"Detailed Clinical Scores, left hind limb","Day 0, CIA rats",0
same,"Detailed Clinical Scores, right forelimb","Day 0, CIA rats",0
same,"Detailed Clinical Scores, right hind limb","Day 0, CIA rats",0
same,"Detailed Clinical Scores, score","Day 0, CIA rats",0
same,Overall clinical score,"Day 0, CIA rats",0
same,Mean animal paw volume ± SD,"Day 6, L paw",1.29 mL
same,Animal paw volume percent change,"Day 6, L paw, individual animals",−2.97% and −1.53% and −3.61% and −3.02% and −3.09% and −3.08% and −4.12% and −5.51%
same,Mean animal paw volume ± SD,"Day 6, R paw",1.29 mL
same,Animal paw volume percent change,"Day 6, R paw, individual animals",−3.00% and −1.16% and −2.91% and −3.72% and −1.56% and −2.70% and −5.90% and −5.13%
same,"Average detailed clinical score, left forelimb","Day 6, CIA rats",0.00
same,"Average detailed clinical score, left hind limb","Day 6, CIA rats",0.00
same,"Average detailed clinical score, right forelimb","Day 6, CIA rats",0.00
same,"Average detailed clinical score, right hind limb","Day 6, CIA rats",0.00
same,"Average detailed clinical score, score","Day 6, CIA rats",0.00
same,Mean overall clinical score ± SD,"Day 6, CIA rats",0 ± 0
same,"Detailed Clinical Scores, left forelimb","Day 6, CIA rats",0
same,"Detailed Clinical Scores, left hind limb","Day 6, CIA rats",0
same,"Detailed Clinical Scores, right forelimb","Day 6, CIA rats",0
same,"Detailed Clinical Scores, right hind limb","Day 6, CIA rats",0
same,"Detailed Clinical Scores, score","Day 6, CIA rats",0
same,Overall clinical score,"Day 6, CIA rats",0
same,Mean animal paw volume ± SD,"Day 12, L paw",1.27 mL
same,Animal paw volume percent change,"Day 12, L paw, individual animals",−10.41% and −7.66% and −1.44% and −3.40% and −1.54% and −6.54% and −3.00% and −5.51%
same,Mean animal paw volume ± SD,"Day 12, R paw",1.26 mL
same,Animal paw volume percent change,"Day 12, R paw, individual animals",−6.74% and −3.09% and −0.73% and −7.43% and −1.56% and −9.27% and −7.01% and −5.86%
same,"Average detailed clinical score, left forelimb","Day 12, CIA rats",0.00
same,"Average detailed clinical score, left hind limb","Day 12, CIA rats",0.00
same,"Average detailed clinical score, right forelimb","Day 12, CIA rats",0.00
same,"Average detailed clinical score, right hind limb","Day 12, CIA rats",0.00
same,"Average detailed clinical score, score","Day 12, CIA rats",0.00
same,Mean overall clinical score ± SD,"Day 12, CIA rats",0 ± 0
same,"Detailed Clinical Scores, left forelimb","Day 12, CIA rats",0
same,"Detailed Clinical Scores, left hind limb","Day 12, CIA rats",0
same,"Detailed Clinical Scores, right forelimb","Day 12, CIA rats",0
same,"Detailed Clinical Scores, right hind limb","Day 12, CIA rats",0
same,"Detailed Clinical Scores, score","Day 12, CIA rats",0
same,Overall clinical score,"Day 12, CIA rats",0
same,Mean animal paw volume ± SD,"Day 13, L paw",1.28 mL
same,Animal paw volume percent change,"Day 13, L paw, individual animals",−8.92% and −5.36% and 0.72% and −3.02% and 0.00% and −4.23% and −2.25% and −5.51%
same,Mean animal paw volume ± SD,"Day 13, R paw",1.28 mL
same,Animal paw volume percent change,"Day 13, R paw, individual animals",−5.99% and −2.32% and 0.36% and −7.43% and −0.78% and −6.95% and −3.69% and −5.86%
